A word on the melting point: it is the temperature of the solid-liquid transition. As usually defined, the IC50 is the point on the concentration scale where inhibition reaches its midpoint. The low end stands for higher potency, the high end for lower potency.

SMILES strings stand for the structures.

Series [1] relates to Aβ42. Description: Method 2: Aβ42 Alphalisa on supernatant of SKNBE2 cells carrying APP 695 wild type. In kind it is cell-based. The conditions noted are these: Homo sapiens, SKNBE2 cells APP 695 wild type, overnight. The protocol: (§1) Screening was carried out using SKNBE2 cells carrying the APP 695—wild type, grown in Dulbecco's Modified Eagle's Medium/Nutrient mixture F-12 (DMEM/NUT-mix F-12) (HAM) provided by Invitrogen (cat no. 10371-029) containing 5% Serum/Fe supplemented with 1% non-essential amino acids, 1-glutamine 2 mM, Hepes 15 mM, penicillin 50 U/ml (units/ml) en streptomycin 50 μg/ml. Cells were grown to near confluency.
(§2) The screening was performed using a modification of the assay as described in Citron et al (1997) Nature Medicine 3: 67. Briefly, cells were plated in a 384-well plate at 10^4 cells/well in Ultraculture (Lonza, BE12-725F) supplemented with 1% glutamine (Invitrogen, 25030-024), 1% non-essential amino acid (NEAA), penicillin 50 U/ml en streptomycin 50 μg/ml in the presence of test compound at different test concentrations. The cell/compound mixture was incubated overnight at 37° C., 5% CO2, The next day the media were assayed by two sandwich immuno-assays, for Aβ42 and Aβtotal.
(§3) Aβtotal and Aβ42 concentrations were quantified in the cell supernatant using the Aphalisa technology (Perkin Elmer). Alphalisa is a sandwich assay using biotinylated antibody attached to streptavidin coated donorbeads and antibody conjugated to acceptor beads. In the presence of antigen, the beads come into close proximity. The excitation of the donor beads provokes the release of singlet oxygen molecules that trigger a cascade of energy transfer in the acceptor beads, resulting in light emission. To quantify the amount of Aβ42 in the cell supernatant, monoclonal antibody specific to the C-terminus of Aβ42 (JRF/cAβ42/26) was coupled to the receptor beads and biotinylated antibody specific to the N-terminus of AB (JRF/AβN/25) was used to react with the donor beads. To quantify the amount of Aβtotal in the cell supernatant, monoclonal antibody specific to the N-terminus of AB (JRF/AβN/25) was coupled to the receptor beads and biotinylated antibody specific to the mid region of Aβ (biotinylated 4G8) was used to react with the donor beads.
(§4) To obtain the values reported in Table 3b, the data were calculated as percentage of the maximum amount of amyloid Beta 42 measured in the absence of the test compound. The sigmoidal dose response curves were analyzed using non-linear regression analysis with percentage of the control plotted against the log concentration of the compound. A 4-parameter equation was used to determine the IC50.

For series [2], the system named is Aβtotal. Description: Method 2: Aβtotal Alphalisa on supernatant of SKNBE2 cells carrying APP 695 wild type. The settings on record: Homo sapiens, SKNBE2 cells APP 695 wild type, overnight. In kind it is cell-based. The protocol: as §1, §2, §3, §4
(In Alpha technology, singlet oxygen from a donor bead excites a nearby acceptor bead.)

In series [3] the test system is Aβ42. Description: Method 1: Aβ42 sandwich ELISA on media of SKNBE2 cells carrying APP 695 wild type (γ-secretase-modulating activity). In kind it is cell-based. The settings on record: Homo sapiens, SKNBE2 cells APP 695 wild type, 18 hours. The protocol:
(§5) Screening was carried out using SKNBE2 cells carrying the APP 695—wild type, grown in Dulbecco's Modified Eagle's Medium/Nutrient mixture F-12 (DMEM/NUT-mix F-12) (HAM) provided by Gibco (cat no. 31330-38) containing 5% Serum/Fe supplemented with 1% non-essential amino acids. Cells were grown to near confluency.
(§6) The screening was performed using the assay as described in Citron et al (1997) Nature Medicine 3: 67. Briefly, cells were plated in a 96-well plate at about 10^5 cells/ml one day prior to addition of compounds. Compounds were added to the cells in Ultraculture (Lonza, BE12-725F) supplemented with 1% glutamine (Invitrogen, 25030-024) for 18 hours. The media were assayed by two sandwich ELISAs, for Aβ42 and Aβtotal. Toxicity of the compounds was assayed by WST-1 cell proliferation reagent (Roche, 1 644 807) according to the manufacturer's protocol.
To quantify the amount of Aβ42 in the cell supernatant, commercially available Enzyme-Linked-Immunosorbent-Assay (ELISA) kits were used (Innotest® β-Amyloid(1-42), Innogenetics N.V., Ghent, Belgium). The Aβ42 ELISA was performed essentially according to the manufacturer's protocol. Briefly, the standards (dilutions of synthetic A131-42) were prepared in polypropylene Eppendorf with final concentrations of 8000 down to […] (½ dilution step). Samples, standards and blanks (100 μl) were added to the anti-Aβ42-coated plate supplied with the kit (the capture antibody selectively recognizes the C-terminal end of the antigen). The plate was allowed to incubate 3 h at 25° C. in order to allow formation of the antibody-amyloid complex. Following this incubation and subsequent wash steps a selective anti-A13-antibody conjugate (biotinylated 3D6) was added and incubated for a minimum of 1 hour in order to allow formation of the antibody-Amyloid-antibody-complex. After incubation and appropriate wash steps, a Streptavidine-Peroxidase-Conjugate was added, followed 30 minutes later by an addition of 3,3′,5,5′-tetramethylbenzidine (TMB)/peroxide mixture, resulting in the conversion of the substrate into a coloured product. This reaction was stopped by the addition of sulfuric acid (0.9 N) and the colour intensity was measured by means of photometry with an ELISA-reader with a 450 nm filter.
(§7) To obtain the values reported in Table 3a, the sigmoidal dose response curves were analysed by computerised curve-fitting, with percent of inhibition plotted against compound concentration. A 4-parameter equation (model 205) in XLfit was used to determine the IC50. The top and the bottom of the curve were fixed to 100 and 0, respectively, and the hill slope was fixed to 1. The IC50 represents the concentration of a compound that is required for inhibiting a biological effect by 50% (Here, it is the concentration where Aβ peptide level is reduced by 50%).
(In an ELISA, binding on a coated surface is turned into a signal by an enzyme label.)

Series [4] deals with Aβtotal. Description: Method 1: Aβtotal sandwich ELISA on media of SKNBE2 cells carrying APP 695 wild type. In kind it is cell-based. The settings on record: Homo sapiens, SKNBE2 cells APP 695 wild type, 18 hours. How it is done:
as §5, §6
To quantify the amount of Aβtotal in the cell supernatant, samples and standards were added to a 6E10-coated plate. The plate was allowed to incubate overnight at 4° C. in order to allow formation of the antibody-amyloid complex. Following this incubation and subsequent wash steps a selective anti-AB-antibody conjugate (biotinylated 4G8) was added and incubated for a minimum of 1 hour in order to allow formation of the antibody-Amyloid-antibody-complex. After incubation and appropriate wash steps, a Streptavidine-Peroxidase-Conjugate was added, followed 30 minutes later by an addition of Quanta Blu fluorogenic peroxidase substrate according to the manufacturer's instructions (Pierce Corp., Rockford, Il).
as §7

In turn, `COc1cccc(-n2nc3c(Nc4ccc(-c5cnn(C)c5)c(F)c4)cccc3c2C)c1` [Compound 7, N-[3-fluoro-4-(1-methyl-1H-pyrazol-4-yl)phenyl]-2-(3-methoxyphenyl)-3-methyl-2H-indazol-7-amine] came in with a melting point of 239.1 °C. The same compound registered an IC50 in series [1] of 55 nM. This compound displayed an IC50 in series [2] of over 10000 nM. Also, in series [3], the IC50 turned out to be 229 nM. The IC50 in series [4] is over 3000 nM.

With `Cc1ncc(-c2ccc(Nc3cccc4c(CN)n(-c5ccc(F)cc5)nc34)cc2)o1` [Compound 8, 2-(4-fluorophenyl)-7-[[4-(2-methyl-5-oxazolyl)phenyl]amino]-2H-indazole-3-methanamine], the melting point was 137 °C. The IC50 in series [1] amounted to 177 nM. In series [2], this compound yielded a half-maximal inhibitory concentration (IC50) of over 10000 nM. This compound gave an IC50 in series [3] of 180 nM. In series [4], this compound gave an IC50 of over 10000 nM.

`Cc1ncn(-c2ccc(Nc3cccc4c(C)n(CCCC(F)(F)F)nc34)cc2F)n1` [Compound 22, N-[3-fluoro-4-(3-methyl-1H-1,2,4-triazol-1-yl)phenyl]-3-methyl-2-(4,4,4-trifluorobutyl)-2H-indazol-7-amine] returned a melting point of 135.6 °C. The compound also came in with an IC50 in series [1] of over 3000 nM. The half-maximal inhibitory concentration (IC50) in series [2] is over 3000 nM. The compound also came in with an IC50 in series [3] of over 3000 nM. This compound yielded an IC50 in series [4] of over 3000 nM.

In turn, `Cc1ncn(-c2ccc(Nc3cccc4c(C)n(-c5ccc(F)cc5F)nc34)cc2F)n1` [Compound 23, 2-(2,4-difluorophenyl)-N-[3-fluoro-4-(3-methyl-1H-1,2,4-triazol-1-yl)phenyl]-3-methyl-2H-indazol-7-amine] had a melting point of 146.9 °C. Besides, in series [1], the IC50 turned out to be 724 nM. In series [2], this compound showed an IC50 of over 10000 nM. In series [3], the IC50 turned out to be 1040 nM.

Take `Cc1ncc(-c2ccc(Nc3cccc4c(C#N)n(-c5ccc(F)cc5)nc34)cc2)o1` [Compound 32, 2-(4-fluorophenyl)-7-[[4-(2-methyl-5-oxazolyl)phenyl]amino]-2H-indazole-3-carbonitrile]: the melting point stood at 237.9 °C. This compound came in with an IC50 in series [1] of over 3000 nM. The compound also registered an IC50 in series [2] of over 3000 nM. Besides, in series [3], 2130 nM corresponded to half-maximal inhibition (IC50). In series [4], this compound came in with an IC50 of over 3000 nM.

As to `Cc1ncc(-c2ccc(Nc3cccc4cn(-c5ccc6c(c5)OCO6)nc34)cc2)o1` [Compound 34, 2-(1,3-benzodioxol-5-yl)-N-[4-(2-methyl-5-oxazolyl)phenyl]-2H-indazol-7-amine], the melting point was 175 °C. The compound also displayed an IC50 in series [1] of 479 nM. In addition, in series [2], the IC50 is over 10000 nM. This compound also came in with an IC50 in series [3] of 359 nM.

Consider `COc1cccc(-n2nc3c(Nc4ccc(-c5cnc(C)o5)cc4)nccc3c2C)c1` [Compound 35, 2-(3-methoxyphenyl)-3-methyl-N-[4-(2-methyl-5-oxazolyl)phenyl]-2H-pyrazolo[3,4-c]pyridin-7-amine], for which the melting point came to 185 °C. The same compound displayed an IC50 in series [1] of 166 nM. In addition, in series [2], the IC50 is over 10000 nM. This compound also showed an IC50 in series [3] of 382 nM. Also, the IC50 in series [4] was over 3000 nM.

With `COc1cc(Nc2cccc3c(C)n(-c4ccc(F)cc4)nc23)ccc1-c1cnc(C)o1` [Compound 40, 2-(4-fluorophenyl)-N-[3-methoxy-4-(2-methyl-5-oxazolyl)phenyl]-3-methyl-2H-indazol-7-amine], the melting point came to 164.4 °C. The compound further yielded a concentration for half-maximal inhibition (IC50) in series [1] of 32 nM. Moreover, it took 5500 nM to reach half-maximal inhibition in series [2] (IC50). In addition, in series [3], the IC50 came out at 186 nM. Besides, in series [4], the IC50 was over 3000 nM.

`COc1cc(Nc2nc(C)cc3cn(CC(F)(F)F)nc23)ccc1-c1cnc(C)o1` [Compound 41, N-[3-methoxy-4-(2-methyl-5-oxazolyl)phenyl]-5-methyl-2-(2,2,2-trifluoroethyl)-2H-pyrazolo[3,4-c]pyridin-7-amine] had a melting point of 213.8 °C. In series [1], this compound returned an IC50 of over 3000 nM. The IC50 in series [2] was over 3000 nM.

`Cc1ncc(-c2ccc(Nc3cccc4cn(CC(F)(F)F)nc34)cn2)o1` [Compound 44, N-[6-(2-methyl-5-oxazolyl)-3-pyridinyl]-2-(2,2,2-trifluoroethyl)-2H-indazol-7-amine] showed a melting point of 153.4 °C. This compound also yielded an IC50 in series [1] of 363 nM. In series [2], this compound gave an IC50 of over 10000 nM. In series [3], this compound gave an IC50 of 513 nM. Moreover, the IC50 in series [4] was over 3000 nM.

Take `CC(C)c1ncc(-c2ccc(Nc3cccc4cn(CC(F)(F)F)nc34)cc2)o1` [Compound 48, N-[4-[2-(1-methylethyl)-5-oxazolyl]phenyl]-2-(2,2,2-trifluoroethyl)-2H-indazol-7-amine]: the melting point came out at 103.9 °C. The compound also gave an IC50 in series [1] of over 3000 nM. The compound further came in with an IC50 in series [2] of over 3000 nM.

`COc1cc(Nc2cc(C)nc3cn(CC(F)(F)F)nc23)ccc1-c1cnc(C)o1` [Compound 51, N-[3-methoxy-4-(2-methyl-5-oxazolyl)phenyl]-5-methyl-2-(2,2,2-trifluoroethyl)-2H-pyrazolo[4,3-b]pyridin-7-amine] showed a melting point of 211.5 °C. For the same compound, the IC50 in series [1] amounted to 234 nM. Besides, the IC50 in series [2] turned out to be 5250 nM.

For `Cc1cn(-c2ccc(Nc3cccc4cn(CC(F)(F)F)nc34)cc2F)cn1` [Compound 52, N-[3-fluoro-4-(4-methyl-1H-imidazol-1-yl)phenyl]-2-(2,2,2-trifluoroethyl)-2H-indazol-7-amine], the melting point was 144.9 °C. Besides, in series [1], the IC50 was 339 nM. Further, the IC50 in series [2] was over 10000 nM.

In turn, `COc1nc(Nc2cc(C(C)C)nc3cn(CC(F)(F)F)nc23)ccc1-n1cnc(C)c1` [Compound 57, N-[6-methoxy-5-(4-methyl-1H-imidazol-1-yl)-2-pyridinyl]-5-(1-methylethyl)-2-(2,2,2-trifluoroethyl)-2H-pyrazolo[4,3-b]pyridin-7-amine] came in with a melting point of 172.5 °C. In series [1], this compound gave a concentration for half-maximal inhibition (IC50) of 107 nM. Moreover, half-maximal inhibition in series [2] (IC50) required 1660 nM.

The record behind these values is patent publication US20120095036A1, “NOVEL SUBSTITUTED INDAZOLE AND AZA-INDAZOLE DERIVATIVES AS GAMMA SECRETASE MODULATORS” (priority 2009, published 2012).
